Assay results published in PubChem BioAssay AID192 (DTP/NCI, 2004).
Toxic doses and inconclusive results are not listed. How the source made its calls: active means survival T/C of 150% or more; inactive means T/C below 125% in these data.

System: BDF1 mice, B16 melanoma ip, median survival T/C
Experiment: NCI In Vivo Anticancer Drug Screen. Data for tumor model B16 Melanoma (intraperitoneal) in B6D2F1 (BDF1) mice
Conditions: endpoint: median survival time, higher = longer survival
Method in brief: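 The ratio T/C compares compound-treated mice with vehicle-treated controls, using survival or tumor size as the endpoint in a transplantable tumor model.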

[1] = dose: 25.0 mg/kg/injection, schedule: Q01DX009 (ip), vehicle: Klucel (hydroxypropylcellulose) (HPC)
[2] = dose: 50.0 mg/kg/injection, schedule: Q01DX009 (ip), vehicle: Klucel (hydroxypropylcellulose) (HPC)
[3] = dose: 100.0 mg/kg/injection, schedule: Q01DX009 (ip), vehicle: saline with Tween-80
[4] = dose: 25.0 mg/kg/injection, schedule: Q01DX009 (ip), vehicle: saline
[5] = dose: 50.0 mg/kg/injection, schedule: Q01DX009 (ip), vehicle: saline

Measured: T/C

COc1cccc(CC(C)[N+](=O)[O-])c1 (centres undefined)
inactive: dose: 45.0 mg/kg/injection, schedule: Q01DX009 (ip), vehicle: saline with Tween-80 109 % of control | dose: 90.0 mg/kg/injection, schedule: Q01DX009 (ip), vehicle: saline with Tween-80 100 % of control | dose: 180.0 mg/kg/injection, schedule: Q01DX009 (ip), vehicle: saline with Tween-80 86 % of control

Cc1cc(C)c(NC(=O)Nc2cccc3ccccc23)c(C)c1
inactive: [1] 91 % of control | [2] 95 % of control

c1ccc(N/N=C2/c3ccccc3CC23OC3c2ccccc2)cc1 (centres undefined)
inactive: [2] 87 % of control | dose: 100.0 mg/kg/injection, schedule: Q01DX009 (ip), vehicle: Klucel (hydroxypropylcellulose) (HPC) 96 % of control | dose: 400.0 mg/kg/injection, schedule: Q01DX009 (ip), vehicle: Klucel (hydroxypropylcellulose) (HPC) 89 % of control

Oc1cc2ccccc2c(-c2c(O)c(O)cc3ccccc23)c1O
inactive: dose: 12.5 mg/kg/injection, schedule: Q01DX009 (ip), vehicle: saline with Tween-80 114 % of control | dose: 25.0 mg/kg/injection, schedule: Q01DX009 (ip), vehicle: saline with Tween-80 117 % of control | dose: 50.0 mg/kg/injection, schedule: Q01DX009 (ip), vehicle: saline with Tween-80 117 % of control | [3] 110 % of control

c1ccc(CSC2=NCCS2)cc1
inactive: [3] 102 % of control | dose: 200.0 mg/kg/injection, schedule: Q01DX009 (ip), vehicle: saline with Tween-80 105 % of control | dose: 400.0 mg/kg/injection, schedule: Q01DX009 (ip), vehicle: saline with Tween-80 97 % of control

CCCCCCCCCCC(O)CN1CCN(c2ccc(C)cc2)CC1 (centres undefined)
inactive: dose: 12.5 mg/kg/injection, schedule: Q01DX009 (ip), vehicle: Klucel (hydroxypropylcellulose) (HPC) 92 % of control | [1] 105 % of control | dose: 200.0 mg/kg/injection, schedule: Q01DX009 (ip), vehicle: Klucel (hydroxypropylcellulose) (HPC) 86 % of control

Nc1ncnc2c1c1c(N)[nH]nc1n2C1OC(CO)C(O)C1O (centres undefined)
inactive: [4] 110 % of control | [5] 106 % of control | dose: 100.0 mg/kg/injection, schedule: Q01DX009 (ip), vehicle: saline 95 % of control

Nc1ccc(Nc2ccc([N+](=O)[O-])cc2[N+](=O)[O-])cc1
inactive: dose: 50.0 mg/kg/injection, schedule: Q04DX003 (ip), vehicle: gum acacia 104 % of control | dose: 100.0 mg/kg/injection, schedule: Q04DX003 (ip), vehicle: gum acacia 97 % of control | dose: 200.0 mg/kg/injection, schedule: Q04DX003 (ip), vehicle: gum acacia 95 % of control

COc1cc(C)c2c(c1C=O)Oc1c(c(C)c(O)c3c1C(O)OC3=O)OC2=O (centres undefined)
inactive: dose: 3.12 mg/kg/injection, schedule: Q01DX009 (ip), vehicle: saline 101 % of control | dose: 6.25 mg/kg/injection, schedule: Q01DX009 (ip), vehicle: saline 94 % of control | dose: 12.5 mg/kg/injection, schedule: Q01DX009 (ip), vehicle: saline 100 % of control | [4] 101 % of control | [5] 87 % of control
